Data on five molecules can be found in US8993717B2, “Gadd45beta targeting agents” (Imperial Innovations Limited, priority 2009, dated 2015).

Read-outs that look alike come from different tables or passages of the source. Square brackets hold non-standard residues; d marks the D form. Peptide text beside a SMILES is read from it. * marks the point of attachment. Cbz = O=C(OCc1ccccc1)*

Data set [1] has as its system sh-MKK7-expressing ARH-77 cells.
In data set [2] the test system is primary multiple myeloma cells. The data set is described as follows: Trypan blue exclusion assay in primary multiple myeloma cells from patients. The class given is cell-based, human. The settings on record: 1 μM or 10 μM, 48 hrs, 5 patients. The source says: To confirm that Z-/mDTPs retain cytotoxic activity in primary multiple myeloma cells, we examined the effects of Z-DTP1 and Z-DTP2 on the survival of multiple myeloma cells isolated from patients with a clinical diagnosis of multiple myeloma. To this end, multiple myeloma cells were purified from bone marrow (BM) aspirates of multiple myeloma patients by […], using CD138-conjugated magnetic beads, essentially as described in the reference by Hideshima T. et all 2006, Blood 107: 4053-4062. The purity of multiple myeloma cells was confirmed by flow cytometric, using and CD138 and anti-CD45 antibodies, also essentially in accordance with the procedure described in the reference by Hideshima T. et all 2006, Blood 107: 4053-4062. Purified CD138^+ BM cells were then cultured at a concentration of 4×10^5 cells/ml in wells of 96-well plates and treated with either 1 μM or 10 μM of Z-DTP1, Z-DTP2 or Z-DNC for 48 hrs. Cell viability was measured by cell counting using trypan blue exclusion assays (FIGS. 14A, 14B, 14C, 14D, and 14E).

In data set [3] the test system is sh-NS-expressing ARH-77 cells.
The target in another data set is T1, Gadd45β/MKK7 interaction (Homo sapiens, UniProt O14733).
T1 construct: The GST-fused full-length kinase was coated for 16 h at 4° C., at a concentration of 42 nM; made in house
T1 sequence (O14733 1-419): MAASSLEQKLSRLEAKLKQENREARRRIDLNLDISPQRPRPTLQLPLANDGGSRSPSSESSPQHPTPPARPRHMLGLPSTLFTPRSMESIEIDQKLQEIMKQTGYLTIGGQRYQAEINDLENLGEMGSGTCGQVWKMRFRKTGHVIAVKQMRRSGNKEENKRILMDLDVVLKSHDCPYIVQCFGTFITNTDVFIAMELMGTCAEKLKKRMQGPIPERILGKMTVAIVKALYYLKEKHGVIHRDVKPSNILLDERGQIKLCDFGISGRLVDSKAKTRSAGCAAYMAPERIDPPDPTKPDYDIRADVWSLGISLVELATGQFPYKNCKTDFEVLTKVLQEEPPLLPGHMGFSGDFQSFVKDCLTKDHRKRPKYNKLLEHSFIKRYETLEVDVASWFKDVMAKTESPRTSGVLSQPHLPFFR
Briefly: ELISA competition assay of biotin-hGadd45β binding to coated GST-MKK7. Summed up: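 GST-MKK7 (42 nM) coated in Tris pH 7.5 buffer, 16 h, 4 °C; biotin-hGadd45β (21 nM) added with competitor peptides (0.01–100 nM), 1 h, 37 °C. Streptavidin-HRP/o-phenylenediamine read at 490 nm; binding expressed as % of signal without competitor.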

Data set [4] deals with U266, KMS-11, NCI-H929, BJAB and U937 tumour cell lines. The data set is described as follows: [3H]thymidine incorporation assay in tumour cell lines at 10 μM. It is filed as cell-based, human. The settings on record: up to 144 hrs, result in words. As for the experimental part: All experiments were performed in triplicate.
The test system of data set [5] is KMS12 multiple myeloma cells. The data set is described as follows: [3H]thymidine incorporation assay in KMS12. It is filed as cell-based, human. The settings on record: read-out: IC50 [H^3] thymidine incorporation assay in KMS12.
Protocol: The effects of Z-DTPs on the survival/proliferation of multiple myeloma cells were evaluated by the use of [^3H]thymidine) incorporation assays, performed as also described in Example 8. The amount of cell proliferation measured with each of the Z-DTPs' concentrations used and with the untreated cultures (i.e. cultures incubated with medium alone), was expressed as counts per minute (c.p.m.)—which directly correlate with the extent of cell proliferation. All experiments were performed in triplicate.
In these latter assays, the effects of Z-DTPs, Ac-DTPs and Z-LTPs on the survival/proliferation of tumour cell lines was investigated by measuring DNA synthesis using standard tritiated thymidine ([^3H]thymidine; [^3H]-TdR) uptake assays. In the analyses shown, cells were incubated for 24, 72, 120 or 144 hrs at 37° C. in the presence or absence of control or bioactive tetrapeptides, as indicated, then subjected to an additional incubation for 18 hrs with [^3H]-TdR (0.037 MBq/well, equivalent to 0.5 μCi/well). Cells were subsequently harvested onto glass fibre filter mats using a 96-well plate automated cell harvester, after which scintillation fluid was added, and [^3H]thymidine incorporation measured by liquid scintillation spectroscopy on a beta counter. The results are expressed as the percentages of the counts per minute (c.p.m.) (directly correlating with the extent of cell proliferation) measured with tetrapeptide-treated cultures relative to the c.p.m. measured with the corresponding cultures incubated with medium alone (untreated cells). All experiments were performed in triplicate.
The mark [6] stands for this setting: Table V, FIG. 3C, read-out: IC50 ELISA.

Turning to `NC(=O)[C@@H](Cc1ccccc1)NC(=O)[C@@H](Cc1c[nH]cn1)NC(=O)[C@@H](CC(=O)O)NC(=O)[C@@H](Cc1ccc(O)cc1)NC(=O)OCc1ccccc1` [Compound 1, Z-Tyr-Asp-His-Phe-NH2] (Cbz-[dY][dD][dH][dF]-NH2), the IC50 in data set [1] was more than 10000 nM; in data set [3], 1400 nM; on Gadd45β/MKK7 interaction (Table V, peptides 0.01-10 nM, read-out: IC50 ELISA) it was 0.22 nM. In addition, in data set [2], the “cytotoxic activity in primary multiple myeloma cells” value is “strong cytotoxic activity”.
Turning to `N=C(N)NCCC[C@@H](NC(=O)[C@@H](CCC(=O)O)NC(=O)[C@@H](Cc1ccc(O)cc1)NC(=O)OCc1ccccc1)C(=O)N[C@H](Cc1ccccc1)C(N)=O` [Compound 9, Z-D-Tyr-D-Glu-D-Arg-D-Phe-NH2] (Cbz-[dY][dE][dR][dF]-NH2), the IC50 in data set [1] is more than 10000 nM; in data set [3], 302 nM; in data set [5] (Day 1), 1300 nM; in data set [5] (Day 3, listed as Z-DTP2), 144 nM; in data set [5] (Day 3), 141 nM; in data set [5] (Day 6), 66 nM. The “cytotoxic activity in primary multiple myeloma cells” value in data set [2] was “strong cytotoxic activity”. In data set [4], the “tumoricidal/cytotoxic activity in tumour cell lines” value was “high cytotoxic activity”.
In the case of `CC(=O)N[C@H](Cc1ccc(O)cc1)C(=O)N[C@H](CCCNC(=N)N)C(=O)N[C@H](Cc1ccccc1)C(N)=O` [Compound 17, Ac-D-Tyr-D-Arg-D-Phe-NH2] (Ac-[dY]-[dR]-[dF]-NH2), the IC50 in data set [1] is more than 10000 nM; in data set [3] it was 303 nM; at Gadd45β/MKK7 interaction it was 0.157 nM; in data set [5] (Day 1), 354 nM; in data set [5] (Day 3), 81 nM; in data set [5] (Day 6, listed as mDTP3), 25 nM. The IC50 in data set [5] (Day 6) was found to be 16 nM. Besides, the “cytotoxic activity in primary multiple myeloma cells” value in data set [2] is “Strong cytotoxic activity”.
`CC(=O)N[C@H](Cc1ccc(O)cc1)C(=O)N[C@H](CC(=O)O)C(=O)N[C@H](Cc1c[nH]cn1)C(=O)N[C@H](Cc1ccccc1)C(N)=O` [DTP1, Acetyl-(D-Tyr)-(D-Asp)-(D-His)-(D-Phe)-NH2] (Ac-[dY][dD][dH][dF]-NH2): the “tumoricidal/cytotoxic activity in tumour cell lines” value in data set [4] was “not”. Moreover, the IC50 on Gadd45β/MKK7 interaction (setting [6]) amounted to 0.22 nM.
The matching figures for `CC(=O)N[C@H](Cc1ccc(O)cc1)C(=O)N[C@H](CCC(=O)O)C(=O)N[C@H](CCCNC(=N)N)C(=O)N[C@H](Cc1ccccc1)C(N)=O` [DTP2, Acetyl-(D-Tyr)-(D-Glu)-(D-Arg)-(D-Phe)-NH2] (Ac-[dY][dE][dR][dF]-NH2): “inactivity” and 0.19 nM.
